Source: patent US6548494B1, “Tricyclic inhibitors of poly(ADP-ribose) polymerases” (Agouron Pharmaceuticals, Inc., priority 1999, dated 2003)
Where “and” joins values, the source holds several entries; their conditions need not be identical. Identical values can stand only once.

Experiments:
A549 cells = assay: Cytotoxicity potentiation assay; assay type: cell-based; conditions: test compound 0.4 μM, ratio of IC50 of topotecan alone to IC50 of topotecan with test compound
Procedure: A549 cells (ATCC, Rockville, Md.) were seeded into 96-well cell culture plates (Falcon brand, Fisher Scientific, Pittsburgh, Pa.) 16 to 24 hours before experimental manipulation. Cells were then treated with a test compound (or a combination of test compounds where indicated) each at a concentration of 0.4 μM for either 3 days or 5 days. At the end of treatments, relative cell number was determined either by MTT assay or SRB assay. For the MTT assay, 0.2 μg/μl of MTT (3-(4,5-dimethylthiazol-2-yl)-2,5-diphenyltetrazolium bromide) (Sigma Chemical Co., St. Louis, Mo.) was added to each well of a plate, and the plate was incubated in a cell-culture incubator for 4 hours. Metabolized MTT in each well was solubilized in 150 μl of DMSO (Sigma Chemical Co.) with shaking and quantified with a Wallac 1420 Victor plate reader (EG&G Wallac, Gaithersburg, Md.) at 540 nm. For the SRB assay, cells were fixed with 10% trichloroacetic acid (Sigma Chemical Co) for an hour at 4° C. After extensively washing, fixed cells were stained for 30 minutes with 0.4% sulforhodamine B (SRB, Sigma Chemical Co.) in 1% acetic acid (Sigma Chemical Co). Unbound SRB was washed away with 1% acetic acid. Then the cultures were air-dried, and dye was solubilized with 10 mM unbuffered Tris base (Sigma Chemical Co) with shaking. The bound dye was measured photometrically with the Wallac Victor plate reader at 515 nm. The ratio of the OD (optical density) value of a compound-treated culture to the OD value of a mock-treated culture, expressed in percentage, was used to quantify the cytotoxicity of a compound. […] To quantify the potentiation of the cytotoxicity of topotecan or temozolomide by test compounds, a dimensionless parameter PF50 is used and is defined as the ratio of the IC50 of topotecan or temozolomide alone to the IC50 of topotecan or temozolomide in combination with a test compound. For the compounds of the invention, PF50 values were determined by testing with topotecan.

purified PARP protein = purified PARP protein (Homo sapiens, UniProt P09874); assay: PARP enzyme inhibition assay; assay type: biochemical; conditions: 20 nM purified PARP (5 nM for tight-binding inhibitors), 500 μM NAD+, 25° C.; several values in one cell = repeat determinations; read-out: Inhibition Constant Ki
Sequence of purified PARP protein (P09874 whole entry): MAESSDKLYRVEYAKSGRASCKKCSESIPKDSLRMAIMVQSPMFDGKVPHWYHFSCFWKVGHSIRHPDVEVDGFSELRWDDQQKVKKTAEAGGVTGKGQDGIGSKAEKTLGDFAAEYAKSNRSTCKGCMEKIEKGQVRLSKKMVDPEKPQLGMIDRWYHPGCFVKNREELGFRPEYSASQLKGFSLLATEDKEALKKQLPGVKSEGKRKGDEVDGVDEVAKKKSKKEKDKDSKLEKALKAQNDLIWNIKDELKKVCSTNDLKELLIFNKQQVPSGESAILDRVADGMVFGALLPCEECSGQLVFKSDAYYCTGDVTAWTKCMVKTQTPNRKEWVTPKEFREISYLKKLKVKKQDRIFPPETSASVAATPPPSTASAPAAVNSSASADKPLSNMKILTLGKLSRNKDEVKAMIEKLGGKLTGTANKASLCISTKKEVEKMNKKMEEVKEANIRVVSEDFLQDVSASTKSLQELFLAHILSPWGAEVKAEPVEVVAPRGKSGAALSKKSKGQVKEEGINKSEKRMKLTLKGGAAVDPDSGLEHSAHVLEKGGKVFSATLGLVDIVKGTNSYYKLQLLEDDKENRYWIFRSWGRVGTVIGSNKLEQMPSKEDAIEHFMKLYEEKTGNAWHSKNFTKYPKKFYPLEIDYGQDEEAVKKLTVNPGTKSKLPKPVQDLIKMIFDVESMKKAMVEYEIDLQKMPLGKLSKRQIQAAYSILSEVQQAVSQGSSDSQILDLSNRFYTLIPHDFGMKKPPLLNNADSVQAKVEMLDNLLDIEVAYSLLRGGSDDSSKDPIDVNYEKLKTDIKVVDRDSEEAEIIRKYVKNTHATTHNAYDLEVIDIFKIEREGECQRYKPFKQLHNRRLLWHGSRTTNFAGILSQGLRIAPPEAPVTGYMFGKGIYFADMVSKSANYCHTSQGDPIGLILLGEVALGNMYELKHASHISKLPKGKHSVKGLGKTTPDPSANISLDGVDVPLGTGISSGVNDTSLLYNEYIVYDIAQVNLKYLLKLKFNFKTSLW

Structure (SMILES)	Cytotoxicity Potentiation PF50 (A549 cells)	Ki (purified PARP protein)	melting point
CC1C=CC(C)N1Cc1ccc(-c2nc3cccc4c3n2CCNC4=O)cc1 (racemic) [Example 243, 1-[4-(2,5-Dimethyl-2,5-dihydro-pyrrol-1-ylmethyl)-phenyl]-8,9-dihydro-7H-2,7,9a-triaza-benzo[cd]azulen-6-one]	2.0	8.9 nM	
O=C1NCCn2c(-c3ccccc3)nc3cccc1c32 [Example 1, 1-Phenyl-8,9-dihydro-7H-2,7,9a-triaza-benzo[cd]azulen-6-one]	1.5		
O=C1NCCn2c(-c3ccc(F)cc3)nc3cccc1c32 [Example 2, 1-(4-Fluoro-phenyl)-8,9-dihydro-7H-2,7,9a-triaza-benzo[cd]azulen-6-one]	1.6	8 nM and 6 nM	
O=C1NCCn2c(-c3cccnc3)nc3cccc1c32 [Example 7, 1-Pyridin-3-yl-8,9-dihydro-7H-2,7,9a-triaza-benzo[cd]azulen-6-one]	1.4	5.1 nM	
O=C1NCCn2c(-c3cccc4ccccc34)nc3cccc1c32 [Example 9, 1-Naphthalen-1-yl-8,9-dihydro-7H-2,7,9a-triaza-benzo[cd]azulen-6-one]	1.4		
O=C1NCCn2c(-c3ccc4ccccc4c3)nc3cccc1c32 [Example 11, 1-Naphthalen-2-yl-8,9-dihydro-7H-2,7,9a-triaza-benzo[cd]azulen-6-one]	2.1	5.6 nM	
O=C1NCCn2c(O)nc3cccc1c32 [Example 26, 8,9-Dihydro-2H 7H-2,7,9a-triaza-benzo[cd]azulen-1,6-dione]	1.1	102 nM	
O=C1NCCn2c(-c3ccc(F)cc3)cc3cccc1c32 [Example 37]	1.8		
O=C1NCCn2c(-c3ccc(Cl)cc3)c(/C=N/O)c3cccc1c32 [Example 39, 6-(4-Chloro-phenyl)-1-oxo-1,2,3,4-tetrahydro-[1,4]diazepino[6,7,1-hi]indole-7-carboxaldehyde Oxime]	1		
O=C1NCCn2cc(/C=N/O)c3cccc1c32 [Example 46, 1-Oxo-1,2,3,4-tetrahydro-[1,4]diazepino[6,7]-hi]indole-7-carbaldehyde Oxime]	1.3		
Cc1c(-c2ccc(F)cc2)n2c3c(cccc13)C(=O)NCC2 [Example 50, 6-(4-Fluoro-phenyl)-7-methyl-3,4-dihydro-2H-[1,4]diazepino[6,7,1-hi]indol-1-one]	1.1		
CN(C)Cc1ccc(-c2nc3cccc4c3n2CCNC4=O)cc1 [Example 58, 1-(4-Dimethylaminomethyl-phenyl)-8,9-dihydro-7H-2,7,9a-triaza-benzo[cd]azulen-6-one]	2.0	5.8 nM	
CN(C)Cc1ccc(-c2cc3cccc4c3n2CCNC4=O)cc1 [Example 82, 6-(4-Dimethylaminomethyl-phenyl)-3,4-dihydro-2H-[1,4]diazepino[6,7,1-hi]indol-1-one]	1.9	6.2 nM and 6.6 nM	
O=C1NCCn2c(-c3ccc(F)cc3)c(/C=N/O)c3cccc1c32 [Example 90, 6-(4-Fluoro-phenyl)-1-oxo-1,2,3,4-tetrahydro-[1,4]diazepino[6,7,1-hi]indole-7-carbaldehyde oxime]	1.2		
O=C1NCCn2c(-c3ccc(CN4CC=CC4)cc3)nc3cccc1c32 [Example 171, 1-[4-(2,5-Dihydro-pyrrol-1-ylmethyl)-phenyl]-8,9-dihydro-7H-2,7,9a-triaza-benzo[cd]azulen-6-one]	2.5	4.5 nM	
C[C@H]1Cn2c(-c3ccc(Cl)cc3)nc3cccc(c32)C(=O)N1 [Example 235, (S)-1-(4-Chloro-phenyl)-8-methyl-8,9-dihydro-7H-2,7,9a-triaza-benzo[cd]azulen-6-one]		5.4 nM	244 to 246 °C
